This note sets out measurements from US20260209249A1, “NOVEL TRICYCLIC COMPOUND AS KRAS G12D INHIBITOR, AND USE THEREOF” (SK Biopharmaceuticals Co., priority 2022, published 2026).

Molecules are shown by their SMILES.

Assay [1] relates to ERK phosphorylation (pERK) induced by KRAS G12D mutation. Nature of the assay: Inhibitory activity against ERK phosphorylation (pERK) induced by KRAS G12D mutation, immunofluorescence assay in AsPC-1 cells. Format: cell-based. The note with it: Homo sapiens, ASPC1, 3 h drug treatment, pERK (Thr202/Tyr204) signal normalized to DAPI. The method, boiled down: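 AsPC-1 cells attached 16 h, then treated 3 h with 3-fold dilutions from 10 μM top. Fixed, permeabilized, immunostained for pERK (Thr202/Tyr204) with Alexa 488 secondary; high-content imaging, signal normalized to DAPI and to DMSO, IC50 from four-parameter fit.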

In assay [2] the test system is KRAS G12D mutant pancreatic cancer cell line AsPC-1. Nature of the assay: Cell viability assay using KRAS G12D mutant cells (AsPC-1, 3D culture, celltiter-glo 3D). Format: cell-based. The note with it: Homo sapiens, ASPC1, 5th day after compound treatment. In a few lines: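 AsPC-1 cells in 3D culture, 1000 cells/well, treated next day with 1/5 serial dilutions from 10 μM or 50 μM, 1:1 v/v. Viability read by CellTiter-Glo 3D on day 5, normalized to DMSO (100%) and untreated backgrounds; IC50 from four-parameter sigmoidal fit.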
In general terms: In ATP-based viability assays light output follows the ATP content of the culture.

In assay [3] the target is T1, GppNHp-KRAS G12D mutant protein (Homo sapiens, UniProt P01116, G12D).
T1 construct: purchased Daegu Gyeongbuk Medical Innovation Foundation (DGMIF), made to order
Nature of the assay: Differential scanning fluorimetry (DSF) binding affinity to GppNHp-KRAS G12D mutant protein. The note with it: DSF thermal shift, 10 μM compound, 4 μg KRAS protein, 50 mM HEPES (pH 7.5). In a few lines: (§1)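 Thermal shift ΔTm was measured at 10 μM compound over a 25–99 °C ramp (0.05 °C/s), read at 580 nm ex/623 nm em with SYPRO Orange (2×). The protein (4 μg) was preincubated with compound for 30 min at room temperature, in 50 mM HEPES pH 7.5 for GppNHp-KRAS G12D or in kit buffer for GDP-KRAS G12D.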
For orientation: In DSF a fluorescence change marks the thermal transition of the protein.

Assay [4] deals with T2, GDP-KRAS G12D mutant protein (Homo sapiens, UniProt P01116, G12D).
T2 construct: purchased Daegu Gyeongbuk Medical Innovation Foundation (DGMIF), made to order
Nature of the assay: Differential scanning fluorimetry (DSF) binding affinity to GDP-KRAS G12D mutant protein. The note with it: DSF thermal shift, 10 μM compound, 4 μg KRAS protein. The method, boiled down:
as §1

In general, IC50 refers to the concentration that inhibits the measured activity by half. Low values mean higher potency, high ones lower potency. With `C#Cc1c(F)ccc2cc(O)cc(-c3cc4nc(OC[C@@]56CCCN5C/C(=C\F)C6)nc(N5C[C@H]6CC[C@@H](C5)N6)c4c4cn(C)nc34)c12` [Example 75, 4-(9-((1 R,5S)-3,8-diazabicyclo[3.2.1]octan-3-yl)-7-(((S,Z)-2-(fluoromethylene)tetrahydro-1H-pyrrolizin-7a(5H)-yl)methoxy)-2-methyl-2H-pyrazolo[4,3-f]quinazolin-4-yl)-5-ethynyl-6-fluoronaphthalen-2-ol], the half-maximal inhibitory concentration (IC50) came out at 20 nM in assay [1] and 34 nM in assay [2]. Moreover, the “GppNHp-KRAS G12D (ΔTmD, ° C.)” value in assay [3] turned out to be 9.60 °C. For the same compound, the “GDP-KRAS G12D (ΔTmD, ° C.)” value in assay [4] amounted to 13.74 °C.
For `C#Cc1c(F)ccc2cc(O)cc(-c3cc4nc(OC[C@@]56CCCN5C[C@H](F)C6)nc(N5C[C@H]6CC[C@@H](C5)N6)c4c4cn(C)nc34)c12` [Example 69, 4-(9-((1R,5S)-3,8-diazabicyclo[3.2.1]octan-3-yl)-7-(((2R,7aS)-2-fluorotetrahydro-1H-pyrrolizin-7a(5H)-yl)methoxy)-2-methyl-2H-pyrazolo[4,3-f]quinazolin-4-yl)-5-ethynyl-6-fluoronaphthalen-2-ol], the 50% inhibitory concentration (IC50) in assay [1] was found to be 169 nM; in assay [2] it was 190 nM. For the same compound, the “GppNHp-KRAS G12D (ΔTmD, ° C.)” value in assay [3] was determined as 7.24 °C. Moreover, the “GDP-KRAS G12D (ΔTmD, ° C.)” value in assay [4] is 11.68 °C.
